Measured values taken from patent US11566007B2, “Ras inhibitors” (Revolution Medicines, Inc., priority 2019, dated 2023).
pEC50, pIC50: −log10 of the molar value. Like-named read-outs stand apart in the source and are kept apart here.

What was measured:
[1] = target: KRAS G12S (Homo sapiens (Human), UniProt P01116+P62937, G12S); test: Ras-Raf (BRAF RBD) disruption / FRET / MOA assay, KRAS G12S; type: biochemical
Method in brief: (§1)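 Compounds, top final concentration 30 μM in 10-point 3-fold series, incubated 3 hours at 25° C with nucleotide-loaded Ras, cyclophilin A and BRAF RBD.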

[2] = target: KRAS G12D (Homo sapiens (Human), UniProt P01116+P62937, G12D); test: Ras-Raf (BRAF RBD) disruption / FRET / MOA assay, KRAS G12D; type: biochemical
Method in brief: as §1

[3] = system: NCI-H358 (K-Ras G12C); test: CellTiter-Glo cell viability assay, NCI-H358; type: cell-based, human; conditions: NCI-H358, 5-day treatment, class symbols, read-out: Additional H358 Cell Viability assay data (K-Ras G12C, IC50)
Method in brief: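 Compounds were dispensed directly onto K-Ras mutant cells and incubated until day 5, then plates were equilibrated to room temperature for about 30 minutes before CellTiter-Glo luminescence. Signals were normalized as (sample/average DMSO)*100 and fitted by four-parameter logistic fit.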

[4] = target: K-Ras G12C (Homo sapiens (Human), UniProt P01116+P62937, G12C); test: Ras-Raf (BRAF RBD) disruption / FRET / MOA assay, KRAS G12C; type: biochemical; conditions: KRAS G12C; Ras-Raf disruption/FRET/MOA assay; read-out: IC50* KRAS G12C FRET data
Method: (§2) The purpose of this biochemical assay is to measure the ability of test compounds to facilitate ternary complex formation between a nucleotide-loaded Ras isoform and cyclophilin A; the resulting ternary complex disrupts binding to a BRAF^RBD construct, inhibiting Ras signaling through a RAF effector.
(§3) Compound is present in plate wells as a 10-point 3-fold dilution series starting at a final concentration of 30 μM. After incubation at 25° C. for 3 hours, a mixture of Anti-His Eu-W1024 and anti-GST allophycocyanin is then added to assay sample wells at final concentrations of 10 nM and 50 nM, respectively, and the reaction incubated for an additional 1.5 hours. […] Compounds that facilitate disruption of a Ras:RAF complex are identified as those eliciting a decrease in the TR-FRET ratio relative to DMSO control wells.
(§4) This protocol may also be executed substituting other Ras proteins or nucleotides.
(§5) The purpose of this biochemical assay was to measure the ability of test compounds to facilitate ternary complex formation between a nucleotide-loaded K-Ras isoform and Cyclophilin A; the resulting ternary complex disrupts binding to a BRAF^RBD construct, inhibiting K-Ras signaling through a RAF effector. Data is reported as IC50 values.
(§6) Compound was present in plate wells as a 10-point 3-fold dilution series starting at a final concentration of 30 μM. After incubation at 25° C. for 3 hours, a mixture of Anti-His Eu-W1024 and anti-GST allophycocyanin was then added to assay sample wells at final concentrations of 10 nM and 50 nM, respectively, and the reaction incubated for an additional 1.5 hours. […] Compounds that facilitate disruption of a K-Ras:RAF complex were identified as those eliciting a decrease in the TR-FRET ratio relative to DMSO control wells.

[5] = system: NCI-H358 cells (K-Ras G12C); test: Potency assay: pERK in NCI-H358 cells; type: cell-based, human
Method in brief: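 Inhibition of cellular pERK after a 4 h treatment, detected by AlphaLISA or In-Cell Western. IC50 from a four-parameter concentration-response fit.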

[6] = target: KRAS WT (Homo sapiens (Human), UniProt P01116+P62937); test: Ras-Raf (BRAF RBD) disruption / FRET / MOA assay, KRAS WT; type: biochemical; conditions: read-out: IC50* KRAS WT FRET data
Method: as §2, §3, §4, §5, §6

[7] = target: KRAS G12V (Homo sapiens (Human), UniProt P01116+P62937, G12V); test: Ras-Raf (BRAF RBD) disruption / FRET / MOA assay, KRAS G12V; type: biochemical; conditions: read-out: IC50* KRAS G12V FRET data
Method: as §2, §3, §4, §5, §6

[8] = target: K-Ras G13C (Homo sapiens (Human), UniProt P01116+P62937, G13C); test: Ras-Raf (BRAF RBD) disruption / FRET / MOA assay, KRAS G13C; type: biochemical; conditions: KRAS G13C; Ras-Raf disruption/FRET/MOA assay; read-out: IC50* KRAS G13C FRET data
Method: as §2, §3, §4, §5, §6

[9] = Ras-Raf disruption/FRET/MOA assay; class symbols; read-out: KRAS G12S FRET data IC50
[10] = Ras-Raf disruption/FRET/MOA assay; class symbols; read-out: KRAS G12D FRET data IC50
[11] = H358 KRAS G12C, read-out: pERK EC50
[12] = Homo sapiens, NCI-H358, H358 KRAS G12C, read-out: pERK EC50

Sequence of KRAS G12D (P01116-2 other isoform, or with tags, fused parts or gaps G12D): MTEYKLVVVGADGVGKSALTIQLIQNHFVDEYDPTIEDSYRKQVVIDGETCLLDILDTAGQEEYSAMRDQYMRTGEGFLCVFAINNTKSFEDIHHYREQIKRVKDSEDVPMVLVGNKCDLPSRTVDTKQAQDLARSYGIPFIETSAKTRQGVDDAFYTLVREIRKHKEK
Sequence of KRAS G12D (P62937 whole entry): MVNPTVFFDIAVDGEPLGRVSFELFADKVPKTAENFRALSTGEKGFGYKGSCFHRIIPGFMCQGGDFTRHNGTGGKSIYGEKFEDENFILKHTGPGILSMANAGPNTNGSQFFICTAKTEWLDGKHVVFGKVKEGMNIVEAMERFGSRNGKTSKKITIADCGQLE
Sequence of KRAS G12S (P01116-2 other isoform, or with tags, fused parts or gaps G12S): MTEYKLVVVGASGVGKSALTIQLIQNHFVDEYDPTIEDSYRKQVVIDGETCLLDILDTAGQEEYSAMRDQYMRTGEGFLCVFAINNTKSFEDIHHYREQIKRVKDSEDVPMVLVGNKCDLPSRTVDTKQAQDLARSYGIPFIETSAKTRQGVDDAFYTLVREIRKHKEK
Sequence of KRAS G12S (P62937 whole entry): as the sequence (P62937 whole entry) above
Sequence of K-Ras G12C (P01116-2 other isoform, or with tags, fused parts or gaps G12C): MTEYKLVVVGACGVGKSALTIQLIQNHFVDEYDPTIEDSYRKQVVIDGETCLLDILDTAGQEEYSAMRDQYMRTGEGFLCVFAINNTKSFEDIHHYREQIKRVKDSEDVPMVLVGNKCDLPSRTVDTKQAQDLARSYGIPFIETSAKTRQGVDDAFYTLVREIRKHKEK
Sequence of K-Ras G12C (P62937 whole entry, canonical isoform): as the sequence (P62937 whole entry) above
Sequence of KRAS G12V (P01116-2 other isoform, or with tags, fused parts or gaps G12V): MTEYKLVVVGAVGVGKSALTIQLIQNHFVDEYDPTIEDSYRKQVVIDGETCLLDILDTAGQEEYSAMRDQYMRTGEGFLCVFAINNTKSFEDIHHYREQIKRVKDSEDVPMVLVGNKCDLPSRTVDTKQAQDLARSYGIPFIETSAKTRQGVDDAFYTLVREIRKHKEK
Sequence of KRAS G12V (P62937 whole entry): as the sequence (P62937 whole entry) above
Sequence of K-Ras G13C (P01116-2 other isoform, or with tags, fused parts or gaps G13C): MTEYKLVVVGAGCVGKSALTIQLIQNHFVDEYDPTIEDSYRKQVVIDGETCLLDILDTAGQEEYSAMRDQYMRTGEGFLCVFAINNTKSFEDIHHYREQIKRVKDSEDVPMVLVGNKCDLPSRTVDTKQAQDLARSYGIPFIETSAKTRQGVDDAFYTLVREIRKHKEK
Sequence of K-Ras G13C (P62937 whole entry): as the sequence (P62937 whole entry) above
Sequence of KRAS WT (P01116-2 other isoform, or with tags, fused parts or gaps): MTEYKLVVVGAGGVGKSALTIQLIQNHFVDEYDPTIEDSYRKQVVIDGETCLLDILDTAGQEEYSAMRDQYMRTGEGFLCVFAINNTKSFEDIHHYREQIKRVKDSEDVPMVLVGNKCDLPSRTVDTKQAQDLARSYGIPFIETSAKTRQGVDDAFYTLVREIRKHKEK
Sequence of KRAS WT (P62937 whole entry): as the sequence (P62937 whole entry) above

Compound	pIC50 ([3]; Homo sapiens, NCI-H358, 120 h)	pEC50 [5, 12]	other results
C=CC(=O)N1CC[C@H](C(=O)N(C)[C@H](C(=O)NC2C[C@H]3CN(CCCO3)c3ccc4c(c3)c(c(-c3cccnc3[C@H](C)OC)n4CC)CC(C)(C)COC(=O)[C@@H]3CCCN(N3)C2=O)C(C)C)C1 (stereo partly drawn) [Example A429]	–	–	pIC50 [1, 9]: < 5.00; pIC50 [2, 10]: < 5.00; pIC50 [3]: < 6.00; pIC50 [4]: < 5.00
CCn1c(-c2cccnc2[C@H](C)OC)c2c3cc(ccc31)-c1cc(O)cc(c1)C[C@H](NC(=O)[C@H](C(C)C)N(C)C(=O)c1nc(NC(=O)/C=C/CN(C)C)cs1)C(=O)N1CCC[C@H](N1)C(=O)OCC(C)(C)C2 [Example A258]	–	–	pIC50 [1, 9]: 5.00 to 6.00; pIC50 [3]: 6.00 to 7.00; pEC50 [5, 11]: > 5.30
CCn1c(-c2cccnc2COC)c2c3cc(ccc31)-c1cc(O)cc(c1)C[C@H](NC(=O)[C@H](C(C)C)N(C)C(=O)c1ccc(NC(=O)/C=C/CN(C)C)cn1)C(=O)N1CCC[C@H](N1)C(=O)OCC(C)(C)C2 [Example A067]	–	–	pIC50 [6]: 5.00 to 6.00; pIC50 [7]: 5.00 to 6.00; pIC50 [1, 9]: 5.00 to 6.00; pIC50 [2, 10]: 5.00 to 6.00; pIC50 [8]: 7.00 to 8.00; pIC50 [4]: 7.00 to 8.00
C=CC(=O)N1CC[C@H](C(=O)N(C)[C@H](C(=O)N[C@H]2Cc3cc(N)cc(c3)-c3ccc4c(c3)c(c(-c3ccccc3CCOC)n4CC)CC(C)(C)COC(=O)[C@@H]3CCCN(N3)C2=O)C(C)C)C1 [Examples A002]	–	–	pIC50 [1, 9]: < 5.00; pIC50 [2, 10]: < 5.00; pIC50 [4]: 5.00 to 6.00
C=CC(=O)N1CCC(F)(C(=O)N(C)[C@H](C(=O)N[C@H]2Cc3cccc(c3)-c3ccc4c(c3)c(c(-c3cccnc3[C@H](C)OC)n4CC)CC(C)(C)COC(=O)[C@@H]3CCCN(N3)C2=O)C(C)C)CC1 (atropisomer, axis not shown) [Example A519]	–	–	pIC50 [1, 9]: 6.00 to 7.00; pIC50 [2, 10]: 5.00 to 6.00; pIC50 [3]: > 8.00; pEC50 [5, 11]: > 5.30
C=CC(=O)N1CCN(C(=O)N(C)[C@H](C(=O)N[C@H]2Cc3nc(cs3)-c3ccc4c(c3)c(c(-c3cccnc3[C@H](C)OC)n4CC(F)(F)F)CC(C)(C)COC(=O)[C@@H]3CCCN(N3)C2=O)C(C)C)CC1 (atropisomer, axis not shown) [Example A464]	–	–	pIC50 [7]: 7.00 to 8.00; pIC50 ([1]; read-out: KRAS G12S FRET data IC50; Ras-Raf disruption/FRET/MOA assay; class symbols): 7.00 to 8.00; pIC50 ([2]; read-out: KRAS G12D FRET data IC50; Ras-Raf disruption/FRET/MOA assay; class symbols): 7.00 to 8.00; pEC50 ([5]; Homo sapiens, NCI-H358, read-out: pERK EC50): > 5.30
C=CC(=O)N1CC[C@H](C(=O)N(C)[C@H](C(=O)N[C@H]2Cc3cc(N)cc(c3)-c3ccc4c(c3)c(c(-c3ccccc3CCOC)n4CC)CC(C)(C)COC(=O)[C@@H]3CCCN(N3)C2=O)C(C)C)C1 [Example A2, (2S)-N-[(8S,14S)-4-amino-22-ethyl-21-[2-(2-methoxyethyl)phenyl]-18,18-dimethyl-9,15-dioxo-16-oxa-10,22,28-triazapentacyclo[18.5.2.1^2,^6.1^10,^14.0^23,^27]nonacosa-1(26),2,4,6(29),20,23(27),24-heptaen-8-yl]-3-methyl-2-{N-methyl-1-[(3S)-1-(prop-2-enoyl)pyrrolidin-3-yl]formamido}butanamide]	< 6.00	> 5.30	–
C=CC(=O)N1CC[C@H](C(=O)N(C)[C@H](C(=O)N[C@H]2Cc3cc(O)cc(c3)-c3ccc4c(c3)c(c(-c3cc(F)cnc3COC)n4CC)CC(C)(C)COC(=O)[C@@H]3CCCN(N3)C2=O)C(C)C)C1 [Example A82]	7.00 to 8.00	> 5.30	–
C=CC(=O)N1C[C@H](C)[C@H](C(=O)N(C)[C@H](C(=O)N[C@H]2Cc3cc(O)cc(c3)-c3ccc4c(c3)c(c(-c3ccccc3CN(C)C)n4CC)CC(C)(C)COC(=O)[C@@H]3CCCN(N3)C2=O)C2CCCC2)C1 [Example A43]	7.00 to 8.00	> 5.30	–
C=CC(=O)N1CC[C@H](C(=O)N(C)[C@H](C(=O)N[C@H]2Cc3cc(O)cc(c3)-c3ccc4c(c3)c(c(-c3cnn(C)c3)n4CC)CC(C)(C)COC(=O)[C@@H]3CCCN(N3)C2=O)C(C)C)C1 [Example A99]	7.00 to 8.00	> 5.30	–
C=CC(=O)N1CC[C@H](C(=O)N(C)[C@H](C(=O)N[C@H]2Cc3cc(O)cc(c3)-c3ccc4c(c3)c(c(-c3cncc(C#N)c3)n4CC)CC(C)(C)COC(=O)[C@@H]3CCCN(N3)C2=O)C(C)C)C1 [Example A62]	7.00 to 8.00	> 5.30	–
C=CC(=O)N1CC[C@H](C(=O)N(C)[C@H](C(=O)N[C@H]2Cc3cc(O)cc(c3)-c3ccc4c(c3)c(c(-c3ccc5c(c3)CCN(C)C5)n4CC)CC(C)(C)COC(=O)[C@@H]3CCCN(N3)C2=O)C(C)C)C1 [Example A40]	7.00 to 8.00	> 5.30	–
C=CC(=O)N1CC[C@H](C(=O)N(C)[C@H](C(=O)N[C@H]2Cc3cc(O)cc(c3)-c3ccc4c(c3)c(c(-c3ccccc3OC)n4CC)CC(C)(C)COC(=O)[C@@H]3CCCN(N3)C2=O)C(C)C)C1 [Example A17]	6.00 to 7.00	> 5.30	–
C=CC(=O)N1CC[C@H](C(=O)N(C)[C@H](C(=O)N[C@H]2Cc3cc(O)cc(c3)-c3ccc4c(c3)c(c(-c3ccc(CN(C)C)cc3COC)n4CC)CC(C)(C)COC(=O)[C@@H]3CCCN(N3)C2=O)C(C)C)C1 [Example A51]	7.00 to 8.00	> 5.30	–
C=CC(=O)N1CC2(CCN([C@H](C(=O)N[C@H]3Cc4cc(O)cc(c4)-c4ccc5c(c4)c(c(-c4ccccc4CCOC)n5CC)CC(C)(C)COC(=O)[C@@H]4CCCN(N4)C3=O)C(C)C)C2=O)C1 [Example A31]	7.00 to 8.00	> 5.30	–
CCn1c(-c2cccnc2COC)c2c3cc(ccc31)-c1cc(O)cc(c1)C[C@H](NC(=O)[C@H](C(C)C)N(C)C(=O)C1CN(C(=O)/C=C/CN(C)C)C1)C(=O)N1CCC[C@H](N1)C(=O)OCC(C)(C)C2 [Example A71, (2S)-2-(1-{1-[(2E)-4-(dimethylamino)but-2-enoyl]azetidin-3-yl}-N-methylformamido)-N-[(8S,14S)-22-ethyl-4-hydroxy-21-[2-(methoxymethyl)pyridin-3-yl]-18,18-dimethyl-9,15-dioxo-16-oxa-10,22,28-triazapentacyclo[18.5.2.1^2,^6.1^10,^14.0^23,^27]nonacosa-1(26),2,4,6(29),20,23(27),24-heptaen-8-yl]-3-methylbutanamide]	6.00 to 7.00	> 5.30	–
CCn1c(-c2cccnc2COC)c2c3cc(ccc31)-c1cc(O)cc(c1)C[C@H](NC(=O)[C@H](C(C)C)N(C)C(=O)[C@H]1CCN(C(=O)C#CCN(C)C)C1)C(=O)N1CCC[C@H](N1)C(=O)OCC(C)(C)C2 [Example A96]	> 8.00	> 5.30	–
C=CC(=O)N1CCC(C(=O)N(C)[C@H](C(=O)N[C@H]2Cc3cc(O)cc(c3)-c3ccc4c(c3)c(c(-c3ccccc3CCOC)n4CC)CC(C)(C)COC(=O)[C@@H]3CCCN(N3)C2=O)C(C)C)CC1 [Example A14]	6.00 to 7.00	> 5.30	–
